Assay [1] relates to α-Syn transgenic Parkinson's disease mouse model. The experiment in a line: α-Syn transgenic Parkinson's disease mouse model: step error (beam test). The assay is classed as in vivo. Particulars: at 7 and 9 months; Memantine 10 mg/kg, Example 3 2/10/50 mg/kg, Example 2 2 mg/kg PO QD; vs G2. As to the method: (§1) The test drug was administered once daily (QD) via oral administration (PO) with a solution of 5 ml/kg for 5 months from 4 months to 9 months of age. Motor behavior tests (beam test) and neurological scores (modified Irwin test) were performed at 4 months (before administration), 7 months, and 9 months. After the final behavioral test, tissue samples were taken. Weight was measured on the same day once a week from 4 months of age until the end of the study.
The procedure described by Fleming et al. (J Neurosci, 24:9434-40, 2004) was adopted as the beam test (Challenging Beam Traversal). Exercise capacity was measured with a new beam test that was a modification of the existing beam walking test. The beam is made of Plexiglas and consists of four sections (each 25 cm and a total length of 1 m), each with a different width. The beam is designed to start at 3.5 cm wide and gradually narrow in increments of 0.5 cm×1 cm. A shelf 1 cm wide was placed 1.0 cm below the top surface of the beam.
The mouse was trained to cross the length of the beam, starting from the widest section and ending with the narrowest and most difficult section. The narrow end of the beam is designed to connect directly to the mouse's house cage. The mice were trained for two days before testing, and all training was carried out without a mesh grid. On the first day, two auxiliary exercises were performed, in which the mouse was placed on a beam and the home cage was placed close to the mouse. This induces it to move forward along the beam. […]
The error was counted if the limb (front or hind leg) passed through the grid during forward movement and was visible between the grid and the beam surface. […] Error was measured by scoring each limb slippage individually. For example, a mouse with three limbs slipping off the grid in one step was rated with an error score of 3 points, while a mouse with only one limb slipped off the grid in one step was evaluated with an error score of 1 in that step. […] The number of step errors and the time it took to cross were measured and averaged in all five experiments.

Another assay deals with PC12 cells. As to the kind of experiment: Neuronal protective efficacy against MPP+ (MTT). Particulars: Rattus norvegicus, PC-12, MPP 2 mM, Control = 100, read-out: cell viability (AVE); for viability at 0.1 µM: compound 0.1 μM; for viability at 0.3 µM: compound 0.3 μM; for viability at 1 µM: compound 1 μM. The assay is classed as cell-based. As to the method:
The neuronal toxicity substances 6-OHDA (6-hydroxydopamine hydrobromide) and MPP+ (1-methyl-4-phenylpyridinium) were purchased from Sigma-Aldrich (Saint Louis, MO, USA) and made into 100 mM DMSO stock. PC12 cells were seeded on 96-well plates with 4 pieces of 1×10 per well and incubated for one day. The cells were pretreated with each concentration of embodied compound for 1 h. Subsequently, 40 μM 6-OHDA and 2 mM MPP^+ were added and incubated for 24 hours, respectively. Subsequently, cell viability was measured using MTT (Invitrogen, MA, USA).

Another assay relates to SH-SY5Y cells. As to the kind of experiment: Cytoprotective effects in MPP+-induced human neurons (CCK-8). The assay is classed as cell-based. Particulars: MPP+ 5 mM induced cytotoxicity, cell viability by CCK-8. As for the experimental part: SH-SY5Y cells were purchased from ATCC and cultured at 37° C. and 5% CO2 in RPMI medium containing 10% FBS and 1% penicillin and streptomycin. MPP+ was purchased from Sigma Aldrich and treated with 5 mM to induce cytotoxicity.

Assay [2] relates to α-Syn transgenic Parkinson's disease mouse model. The experiment in a line: α-Syn transgenic Parkinson's disease mouse model: TH staining of striatum. The format is in vivo. Particulars: 9 months of age; Example 3 2/10/50 mg/kg, Example 2 2 mg/kg PO QD; vs G2. As for the experimental part:
as §1
At 9 months of age, the measurement period ended, the mice were anesthetized, and then the experiment was terminated by cardiac puncture according to IACUC guidelines. Mice were perfused transcardially with 0.9% saline for tissue staining, followed by 4% paraformaldehyde until the mice were fixed. The brains were isolated and immobilized by soaking in 4% paraformaldehyde at 4° C. for 24 hours, followed by 30% sucrose added to PBS containing 0.02% sodium azide and stored at 4° C. for 3 days. Brain samples embedded in OCT compounds were sectioned to a thickness of 20 μm using Leica CM1950 (Leica Microsystems, Germany). The sections were stored at 4° C. in a preservation solution until they were stained by antibodies. […]
TH-stained brain tissue was imaged using an immunofluorescence microscope (Olympus, BZ21) in Olympus. The fluorescence intensity of the striatum was analyzed using Image J software.

The structures appear in SMILES notation.

Consider `Cc1cc(F)c(C(=O)Nc2cccc(-n3nnc4c3CCC4)n2)cc1-n1cnc(C2CC2)c1` [Example 2, 5-(4-cyclopropyl-1H-imidazole-1-yl)-N-(6-(5,6-dihydrocyclopenta[d][1,2,3]triazole-1 (4H)-yl)pyridine-2-yl)-2-fluoro-4-methylbenzamide], for which, in assay [1], the “number of step errors (beam test)” value is on record as “significant reduction in the number of step errors compared to Group G2”. Further, in the assay with PC12 cells, the viability at 0.1 µM came out at 83.9%, the viability at 0.3 µM amounted to 91.7% and the viability at 1 µM amounted to 92.4%. The molecule also registered an EC50 in the assay on SH-SY5Y cells of 64 nM. Also, the “TH staining intensity of striatum” value in assay [2] is on record as “significantly higher than that of group G2”.

Regarding `Cc1cc(F)c(C(=O)Nc2cccc(-n3nnc4c3CCCC4)n2)cc1-n1cnc(C2CC2)c1` [Example 3, 5-(4-cyclopropyl-1H-imidazole-1-yl)-2-fluoro-4-methyl-N-(6-(4,5,6,7-tetrahydro-1H-benzo[d][1,2,3]triazole-1-yl)pyridine-2-yl)benzamide], the “number of step errors (beam test)” value in assay [1] was “significant reduction in the number of step errors compared to Group G2”. Besides, in the assay with PC12 cells, the viability at 0.1 µM turned out to be 87.4%, the viability at 0.3 µM was 87.6% and the viability at 1 µM worked out at 89.9%. In addition, in the assay with SH-SY5Y cells, a half-maximal response (EC50) required 23 nM. The “TH staining intensity of striatum” value in assay [2] is “significantly higher than that of group G2”.

Source of the values: patent publication US20260138969A1 (Korea Research Institute of Chemical Technology, priority 2023, published 2026).
